Values of other authors as cited in patent US20220023301A1, “METHODS OF TREATING AUTOIMMUNE DISEASES WITH SMALL MOLECULE NF-kB INHIBITORS” (ImmuneTarget, Inc., priority 2020, published 2022).

System: cuprizone induced neuroinflammation mouse model

Structure (SMILES): CC(C)[C@]12O[C@H]1[C@@H]1O[C@]13[C@]1(O[C@H]1C[C@H]1C4=C(CC[C@@]13C)C(=O)OC4)[C@@H]2O [Triptolide]
- motor function and motor coordination compared to control group (0.125 mg/kg administered intraperitoneally daily): improves motor function and motor coordination
- Bax/Bcl-2 ratio (0.125 mg/kg dose): reduce Bax/Bcl-2 ratio
- behavioral deficits (0.125 mg/kg dose): improve behavioral deficits
- number of OLGs precursor cells (NG-2+/O4+) (0.125 mg/kg dose): raise the number of OLGs precursor cells
